Test results published in the NIST ThermoML archive (doi:10.1016/j.fluid.2017.10.034).

Test: xn = mol fraction of the nth substance listed
Conditions: Liquid, Vibrating tube method

[Cl-].[Cs+] [cesium chloride] + CO
mass density [kg/m3]
Conditions | 288.15 K | 293.15 K | 298.15 K | 308.15 K | 318.15 K
x1 = 0.0012 | 800.8 | 796.1 | 791.3 | 781.8 | 772.3
x1 = 0.0025 | 805.5 | 800.8 | 796 | 786.5 | 776.9
x1 = 0.0037 | 809.9 | 805.2 | 800.5 | 791 | 781.4
x1 = 0.0049 | 814.5 | 809.8 | 805.1 | 795.5 | 785.9

[Cl-].[Cs+] [cesium chloride] + O
mass density [kg/m3]
Conditions | x1 = 0.0099 | x1 = 0.0196 | x1 = 0.0292 | x1 = 0.0385 | x1 = 0.0536 | x1 = 0.069
288.15 K | 1069.7 | 1137.3 | 1203.3 | 1266.2 | 1367 | 1466.9
293.15 K | 1068.4 | 1135.8 | 1201.6 | 1264.2 | 1364.6 | 1464.1
298.15 K | 1067 | 1134.1 | 1199.6 | 1262 | 1362.1 | 1461.3
308.15 K | 1063.5 | 1130.1 | 1195.2 | 1257.3 | 1356.7 | 1455.3
318.15 K | 1059.2 | 1125.5 | 1190.2 | 1252 | 1350.9 | 1448.6

[Cl-].[Na+] [sodium chloride] + CO
mass density [kg/m3]
Conditions | x1 = 0.001 | x1 = 0.002 | x1 = 0.003 | x1 = 0.004 | x1 = 0.005 | x1 = 0.006 | x1 = 0.007
288.15 K | 797.4 | 798.9 | 800.1 | 801.4 | 802.9 | 804.1 | 805.7
293.15 K | 792.7 | 794.3 | 795.5 | 796.8 | 798.3 | 799.5 | 801.1
298.15 K | 788 | 789.6 | 790.8 | 792.1 | 793.7 | 794.9 | 796.4
308.15 K | 778.6 | 780.2 | 781.4 | 782.7 | 784.3 | 785.5 | 787.1
318.15 K | 769 | 770.7 | 771.9 | 773.3 | 774.8 | 776.1 | 777.7

[Cl-].[Na+] [sodium chloride] + O
mass density [kg/m3]
Conditions | x1 = 0.0099 | x1 = 0.0196 | x1 = 0.0291 | x1 = 0.0385 | x1 = 0.0476 | x1 = 0.0566 | x1 = 0.0654
288.15 K | 1022.2 | 1044.7 | 1065.8 | 1086.7 | 1107.4 | 1127.2 | 1147.1
293.15 K | 1021 | 1043.2 | 1064.1 | 1084.8 | 1105.4 | 1125 | 1144.8
298.15 K | – | 1041.6 | 1062.3 | 1082.8 | 1103.3 | 1122.7 | 1142.4
308.15 K | 1016.2 | 1037.8 | 1058.2 | 1078.5 | 1098.7 | 1118 | 1137.4
318.15 K | 1012.1 | 1033.5 | 1053.6 | 1073.7 | 1093.8 | 1112.9 | 1132.2
